Measurements reported in patent US12465601B2, “Uses of phosphodiesterase inhibitors” (TRANSTHERA SCIENCES (NANJING), INC., priority 2019, dated 2025).

Tests used:
[1] = test system: HEK293T cells double transfected with human PDE9A2 and natriuretic peptide protein receptor 1 (NPR1); assay: Effect on cGMP content in transiently transfected HEK293T cells (ANF-stimulated, cGMP ELISA); format: cell-based; details: ANF 1 μM; compound 0.12-30 μM; FIG. 1
Protocol: Cell name: Human embryonic kidney cell HEK293T
HEK293T cells were plated in a 6-well plate at 2×10^6 cells/well and cultured for 6 h to allow for adherence of cells.
The medium of each well was changed to 1.5 mL DMEM complete medium;
Non-transfected wells: An equal volume of DMEM complete medium (700 μL DMEM complete medium) was added to non-transfected wells.
The medium was aspirated from each well. The cells were washed once with PBS, and 250 μL of 0.5 M perchloric acid was added.
The cells were collected with a cell scraper, and transferred into a 1.5 mL centrifuge tube. After homogeneously mixing by vortex, the cells were centrifuged at 6000 g for 20 min at 4° C. […]
The plate was washed thoroughly 5 times, then 200 μL of Ellman's Reagent was added to each well. The plate was sealed, shaken in the dark, and color-developed for 60 min, and then detected for absorbance value at 412 nm.
Firstly, the non-specific binding (the reading of each well minus the reading of the NSB well) was subtracted, and then B/B0 was calculated, that is, the ratio of the binding of the sample or standard to the maximum binding, and converted according to the following formula, and then the obtained logit(B/B0) and lg (compound concentration) were subjected to linear regression analysis to obtain a standard curve. logit(B/B0)=ln[B/B0/(1−B/B0)] […]

rats with heart failure = assay: Heart failure models of rats induced by coronary artery ligation; format: in vivo, Sprague Dawley rats; details: 30 mpk p.o bid, 28 days
Protocol: Sprague Dawley rats (SD rats), male, weight of about 220 g during modeling. Before operation, the animals were anesthetized by intraperitoneal injection of sodium pentobarbital injection, and atropine was injected intraperitoneally to eliminate phlegm. After the rat was anesthetized and fixed in supine position, a ventilator was used for assisted breathing, the chest was opened between the third and fourth ribs, and the left anterior descending coronary artery was ligated with a 5-0 suture needle. After the ligation was completed, the chest cavity was closed, the skin was sutured, and the rats were put in an insulation blanket for recovery. The same operation was performed on the sham group, except for the silk ligature operation. After the operation, the rats were subjected to intramuscular injection of meloxicam for pain relief, intraperitoneal injection of gentamicin sulfate injection for eliminating infection, and intraperitoneal injection of lidocaine for preventing ventricular fibrillation. One week after the animals recovered from surgery, the model rats were divided into a model group and a therapeutic drug group (compound 102 group), and the vehicle and compound 102 were administered by gavage, respectively, twice a day for four consecutive weeks. During the experiment, the living status of the animals were observed and abnormal conditions were recorded to evaluate the safety of the compound; and administration was performed for 28 days. The animals were anesthetized by intraperitoneal injection of sodium pentobarbital on the second day after the last administration, and echocardiographic detection and hemodynamic detection were performed to evaluate the effect of the compound on cardiac systolic function and ventricular volume. After the end of the experiment, end point treatment was performed, and the heart was taken for material collection for subsequent related researches on cGMP and protein expression. One week after the animals recovered from surgery, the rats were anesthetized with isoflurane, and a small animal ultrasound imaging system Vevo was used to examine the left ventricular function of the model rats. The model was considered successful if the LVEF % was reduced by 30%. Except for the sham group, the animals were randomly divided into 2 groups according to LVEF % and body weight. The number of animals in each group and the method of administration were as follows: [table] At the end of the experiment, rats were sacrificed and the infarct heart tissue was fixed with 4% formaldehyde, dehydrated, embedded in paraffin, and sectioned. Collagen deposition status was observed under a microscope by means of using Sirius red staining, and the Leica aperio digital slice scanning system was used for scanning analysis. The main evaluation indexes are LVEF % (left ventricular ejection fraction), FS (left ventricular fractional shortening), ESV (left ventricular end-systolic volume), EDV (left ventricular end-diastolic volume), and heart rate (HR). At the end of the experiment, the proportion of Sirius red in peri-infarction zone was quantified to evaluate the collagen deposition status. The data was represented by Mean±S.E.M, and Graphpad Prism 5.0 was used for statistical mapping. Statistical analysis was performed with T-test.

SMILES: CCc1cc2c(N3CCC(C)(OC)CC3)c(C#N)c(=O)[nH]c2cn1 [Compound 102, 6-ethyl-4-(4-methoxy-4-methylpiperidin-1-yl)-2-oxo-1,2-dihydro-1,7-diazanaphthalene-3-carbonitrile]
- cGMP content in HEK293T cells [1]: Up-regulation effect
- Percentage (%) of collagen deposition in the peri-infarction zone (rats with heart failure; Mean ± S.E.M, Sirius red staining, P<0.001 vs model group): 21.5 ± 1.234 %
- collagen deposition in the peri-infarction zone (in words) (rats with heart failure; compared with model group P<0.001): significantly reduce
- LVEF (left ventricular ejection fraction) (rats with heart failure; vs model group P<0.001, FIG. 3): improve the reduction
- FS (left ventricular fractional shortening) (rats with heart failure; vs model group P<0.001, FIG. 4): improve the reduction
- ESV (left ventricular end-systolic volume) (rats with heart failure; vs model group P<0.01, FIG. 5): significant improvement effect
- EDV (left ventricular end-diastolic volume) (rats with heart failure; vs model group P<0.05, FIG. 6): significant improvement effect
